Molecular target: T1, LXRβ (Homo sapiens, UniProt P55055)
T1 construct: Co-transfection expression plasmids, comprising full-length LXRα (pCMX-h LXRα[…] or LXRβ (pCMX-hLXRβ)); expressed in transfected cells; host or cells: CV-1 African Green Monkey Kidney Cells
T1 sequence (P55055 1-460): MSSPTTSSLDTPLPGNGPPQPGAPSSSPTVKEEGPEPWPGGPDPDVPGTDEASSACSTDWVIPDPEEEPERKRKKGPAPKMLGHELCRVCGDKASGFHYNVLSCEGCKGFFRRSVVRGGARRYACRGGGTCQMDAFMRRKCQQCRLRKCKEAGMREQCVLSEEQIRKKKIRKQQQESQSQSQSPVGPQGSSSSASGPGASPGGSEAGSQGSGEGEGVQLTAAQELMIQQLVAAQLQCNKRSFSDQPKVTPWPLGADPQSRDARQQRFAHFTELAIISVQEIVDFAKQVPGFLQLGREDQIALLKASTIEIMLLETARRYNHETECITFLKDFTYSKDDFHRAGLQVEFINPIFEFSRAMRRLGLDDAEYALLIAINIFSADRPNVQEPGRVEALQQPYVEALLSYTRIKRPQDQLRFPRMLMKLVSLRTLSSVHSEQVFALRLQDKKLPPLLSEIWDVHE
T1 sequence (P19793 1-462 partner): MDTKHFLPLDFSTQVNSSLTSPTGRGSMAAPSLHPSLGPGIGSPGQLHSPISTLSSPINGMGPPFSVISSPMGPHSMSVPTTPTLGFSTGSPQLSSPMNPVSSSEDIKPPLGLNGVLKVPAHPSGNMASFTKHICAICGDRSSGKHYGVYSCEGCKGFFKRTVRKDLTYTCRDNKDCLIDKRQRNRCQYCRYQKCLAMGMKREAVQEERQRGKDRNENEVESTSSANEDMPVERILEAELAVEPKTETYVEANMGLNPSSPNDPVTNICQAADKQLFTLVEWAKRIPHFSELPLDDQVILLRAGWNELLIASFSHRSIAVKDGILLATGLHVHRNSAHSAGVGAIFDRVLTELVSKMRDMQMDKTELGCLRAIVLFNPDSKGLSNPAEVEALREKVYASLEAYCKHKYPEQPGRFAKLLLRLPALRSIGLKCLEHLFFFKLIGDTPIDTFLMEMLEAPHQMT
Experiment: Co-transfection assay (LXRE luciferase reporter), LXRβ
Format: cell-based
Conditions: for EC50: CV-1 cells transfected with pCMX-hLXRβ and LXREx1-Tk-Luciferase, 20 hours incubation; for Emax: LXRβ co-transfection, relative to high control 1-(2,4-difluorobenzyl)-2-oxo-6-(4-phenoxyphenyl)-4-(trifluoromethyl)-1,2-dihydropyridine-3-carbonitrile, read-out: % Efficacy
Text: To measure the ability of compounds to activate or inhibit the transcriptional activity of LXR in a cell based assay, the co-transfection assay was used. It has been shown that LXR functions as a heterodimer with RXR. For the co-transfection assay, expression plasmids for LXRα and LXRβ are introduced separately via transient transfection into mammalian cells along with a luciferase reporter plasmid that contains one copy of a DNA sequence that is bound by LXR-RXR heterodimers (LXRE; Willy, P. et. al. 1995). LXRs heterodimerize with the endogenous RXR. Treatment of transfected cells with an LXR agonist increases the transcriptional activity of LXR, which is measured by an increase in luciferase activity.
CV-1 African Green Monkey Kidney Cells
Co-transfection expression plasmids, comprising full-length LXRα (pCMX-h LXRα[…] or LXRβ (pCMX-hLXRβ), reporter plasmid (LXREx1-Tk-Luciferase), and control (pCMX-Galactosidase expression vector) (Willey et al. Genes & Development 9 1033-1045 (1995)).
CV-1 cells were prepared 24 hours prior to the experiment by plating them into T-175 flasks or 500 cm^2 dishes in order to achieve 70-80% confluency on the day of the transfection. The number of cells to be transfected was determined by the number of plates to be screened. Each well of a 384 well plate requires 1.5×10^4 cells. DNA Transfection Reagent was prepared by mixing the required plasmid DNAs with a cationic lipid transfection reagent Transit 2020 (Mirus Bio) for CV1 by following the instructions provided with the reagents. Optimal DNA amounts were determined empirically per cell line and size of vessel to be transfected. For each T175 cm^2 flask a total of 59 ug for CV1 of DNA, 133 uL Transit2020 and 4.5 mL DMEM for CV1 was mixed and added. Cells were then incubated at least 5 hours at 37° C. to prepare screening cells.
Luciferase assay reagent (*Steady-Glo Luciferase Assay System by Promega, CAT#E2550) was prepared by combining before use:
Assay plates were prepared by dispensing 5 μL of compound per well of a 384 well plate to achieve final compound concentration of 10 μM and no more than 0.5% DMSO. Media was removed from the screening cells, the cells trypsinized, harvested cells by centrifugation, counted, and plated at a density of approximately 1.5×10^4 cells in the 384 well assay plate prepared above in a volume of about 95 uL. Assay plates containing both compounds and screening cells (100 μL in total volume) were incubated for 20 hours at 37° C.
After incubation with compounds, media was removed from the cells and luciferase assay reagent (50 μL/well) added. After ˜2 minutes at ambient temperature, the assay plates were read on a luminometer (PE Biosystems Northstar reader with on-board injectors, or Envision(Perkin Elmer) or equivalent).
The LXR/LXRE co-transfection assay can be used to establish the EC50/IC50 values for potency and percent activity or inhibition for efficacy. Efficacy defines the activity of a compound relative to a high control 1-(2,4-difluorobenzyl)-2-oxo-6-(4-phenoxyphenyl)-4-(trifluoromethyl)-1,2-dihydropyridine-3-carbonitrileor a low control (DMSO/vehicle). The dose response curves are generated from a 11 point curve with concentrations differing by ½ LOG units. Each point represents the average of 2 wells of data from duplicate 384 well plate.
The data from this assay is fitted to the following equation, from which the EC50 value may be solved: Y=Bottom+(Top−Bottom)/(1+10^((logEC50-X)*HillSlope)).
The EC50/IC50 is therefore defined as the concentration at which an agonist or antagonist elicits a response that is halfway between the Top (maximum) and Bottom (baseline) values. The EC50/IC50 values represented are the averages of at least 2 and normally 3 independent experiments. […]

| EC50 | Emax | SMILES |
| --- | --- | --- |
| 0.053 µM | 91% | COc1cc(-c2oc(C)nc2-c2cc(-c3cccc(S(C)(=O)=O)c3)ccc2-n2cc(C(F)(F)F)nc2C)ccc1OC(F)F [Example 380, 5-(4-(difluoromethoxy)-3-methoxyphenyl)-2-methyl-4-(4-(2-methyl-4-(trifluoromethyl)-1H-imidazol-1-yl)-3′-(methylsulfonyl)biphenyl-3-yl)oxazole] |
| 0.054 µM | 66% | Cc1nc(C(F)(F)F)cn1-c1ccc(-c2cc(F)c(CO)c(S(C)(=O)=O)c2)cc1-c1nc(C(C)C)oc1-c1ccc2c(c1)OC(F)(F)O2 [Example 481, (3′-(5-(2,2-difluorobenzo[d][1,3]dioxol-5-yl)-2-isopropyloxazol-4-yl)-3-fluoro-4′-(2-methyl-4-(trifluoromethyl)-1H-imidazol-1-yl)-5-(methylsulfonyl)biphenyl-4-yl)methanol] |
| 0.4 µM | 105% | Cc1nc(C(F)(F)F)cn1-c1ccc(-c2cccc(S(C)(=O)=O)c2)cc1-n1nncc1-c1cc(F)c(F)c(F)c1 [Example 71, 1-{3′-(methylsulfonyl)-4-[2-methyl-4-(trifluoromethyl)-1H-imidazol-1-yl]biphenyl-3-yl}-5-(3,4,5-trifluorophenyl)-1H-1,2,3-triazole] |
| 0.057 µM | 87% | Cc1nc(C(F)(F)F)cn1-c1ccc(-c2cc(F)c(CO)c(S(C)(=O)=O)c2)cc1-c1ccnn1-c1ccc2c(c1)OC(F)(F)O2 [Example 294, (3′-(1-(2,2-difluorobenzo[d][1,3]dioxol-5-yl)-1H-pyrazol-5-yl)-3-fluoro-4′-(2-methyl-4-(trifluoromethyl)-1H-imidazol-1-yl)-5-(methylsulfonyl)biphenyl-4-yl)methanol] |
| 0.517 µM | 64% | Cc1nc(C(F)(F)F)cn1-c1ccc(-c2cc(F)c(CO)c(S(C)(=O)=O)c2)cc1-c1oc(CCO)nc1-c1ccc(OC(F)(F)F)cc1 [Example 612, 2-(5-(3′-fluoro-4′-(hydroxymethyl)-4-(2-methyl-4-(trifluoromethyl)-1H-imidazol-1-yl)-5′-(methylsulfonyl)-[1,1′-biphenyl]-3-yl)-4-(4-(trifluoromethoxy)phenyl)oxazol-2-yl)ethanol] |
| 0.413 µM | 76% | Cc1nc(Cl)cn1-c1ccc(-c2cc(F)c(CO)c(S(C)(=O)=O)c2)cc1-n1nncc1-c1ccc(OC(F)(F)F)cc1 [Example 147, [4′-(4-chloro-2-methyl-1H-imidazol-1-yl)-3-fluoro-5-(methylsulfonyl)-3′-(5-{4-[(trifluoromethyl)oxy]phenyl}-1H-1,2,3-triazol-1-yl)biphenyl-4-yl]methanol] |

Continued, compound first:

| SMILES | EC50 | Emax |
| --- | --- | --- |
| Cc1nc(C(F)(F)F)cn1-c1cc(F)c(-c2cccc(S(C)(=O)=O)c2)cc1-n1nncc1-c1ccc(OC(F)(F)F)cc1 [Example 99, 1-{6-fluoro-3′-(methylsulfonyl)-4-[2-methyl-4-(trifluoromethyl)-1H-imidazol-1-yl]biphenyl-3-yl}-5-{4-[(trifluoromethyl)oxy]phenyl}-1H-1,2,3-triazole] | 1.01 µM | 86% |
| Cc1nc(C(F)(F)F)cn1-c1ccc(-c2cccc(C(C)(C)C(N)=O)c2)cc1-n1nncc1Cc1cccc(Cl)c1 [Example 114, 2-(3′-{5-[(3-chlorophenyl)methyl]-1H-1,2,3-triazol-1-yl}-4′-[2-methyl-4-(trifluoromethyl)-1H-imidazol-1-yl]biphenyl-3-yl)-2-methylpropanamide] | 0.94 µM | 98% |
| Cc1cn(-c2ccc(-c3cccc(S(C)(=O)=O)c3)cc2-n2nncc2-c2ccc(OC(F)(F)F)cc2)c(C)n1 [Example 83, 1-[4-(2,4-dimethyl-1H-imidazol-1-yl)-3′-(methylsulfonyl)biphenyl-3-yl]-5-{4-[(trifluoromethyl)oxy]phenyl}-1H-1,2,3-triazole] | 1.16 µM | 69% |
| Cc1nc(C(F)(F)F)cn1-c1ccc(-c2cccc(S(C)(=O)=O)c2)cc1-n1nncc1Cc1ccc(F)cc1 [Example 124, 5-[(4-fluorophenyl)methyl]-1-{3′-(methylsulfonyl)-4-[2-methyl-4-(trifluoromethyl)-1H-imidazol-1-yl]biphenyl-3-yl}-1H-1,2,3-triazole] | 1.16 µM | 64% |
| Cc1nc(C(F)F)cn1-c1ccc(-c2cccc(S(C)(=O)=O)c2)cc1-n1nncc1-c1ccc(Cl)cc1 [Example 162, 5-(4-chlorophenyl)-1-{4-[4-(difluoromethyl)-2-methyl-1H-imidazol-1-yl]-3′-(methylsulfonyl)biphenyl-3-yl}-1H-1,2,3-triazole] | 0.977 µM | 65% |
| Cc1nc(-c2cc(-c3ccc(C)c(S(C)(=O)=O)c3)ccc2-n2cc(C(F)(F)F)nc2C)c(-c2ccc(C(F)(F)F)nc2Cl)o1 [Example 476, 5-(2-chloro-6-(trifluoromethyl)pyridin-3-yl)-2-methyl-4-(4′-methyl-4-(2-methyl-4-(trifluoromethyl)-1H-imidazol-1-yl)-3′-(methylsulfonyl)biphenyl-3-yl)oxazole] | 0.726 µM | 39% |
| Cc1nc(C(F)(F)F)cn1-c1ccc(-c2cccc(S(C)(=O)=O)c2)cc1-n1nncc1-c1ccc(N(C)C)cc1 [Example 22, N,N-dimethyl-4-(1-{3′-(methylsulfonyl)-4-[2-methyl-4-(trifluoromethyl)-1H-imidazol-1-yl]biphenyl-3-yl}-1H-1,2,3-triazol-5-yl)aniline] | 0.113 µM | 99% |
| Cc1nc(C(F)(F)F)cn1-c1ccc(-c2cccc(S(C)(=O)=O)c2)cc1-n1nncc1-c1ccc(OC(F)(F)F)cc1F [Example 61, 5-{2-fluoro-4-[(trifluoromethyl)oxy]phenyl}-1-{3′-(methylsulfonyl)-4-[2-methyl-4-(trifluoromethyl)-1H-imidazol-1-yl]biphenyl-3-yl}-1H-1,2,3-triazole] | 0.265 µM | 87% |

— patent publication US9834542B2, “LXR modulators” (BRISTOL-MYERS SQUIBB COMPANY, priority 2013, dated 2017)
